Values joined by “and” are separate entries in the source; they are usually repeats but may differ in a detail not shown here. Identical values can stand only once. Toxic doses and inconclusive results are not listed. No stated cut-off is given here; in the data, active means T/C of 150% or more; inactive means T/C below 125%.
Test system: L1210 leukemia ip in BDF1 mice, survival T/C
Assay: NCI In Vivo Anticancer Drug Screen. Data for tumor model L1210 Leukemia (intraperitoneal) in B6D2F1 (BDF1) mice
Conditions: endpoint: mean survival time, higher = longer survival
In short: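 Each compound was tested against a transplantable tumor grown in mice. The endpoint was survival, with treated animals benchmarked against vehicle controls as a simple ratio.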

[1] = dose: 25.0 mg/kg/injection, schedule: Q01DX009 (ip), vehicle: saline
[2] = dose: 25.0 mg/kg/injection, schedule: Q04DX002 (ip), vehicle: saline
[3] = dose: 25.0 mg/kg/injection, schedule: Q04DX003 (ip), vehicle: saline
[4] = dose: 50.0 mg/kg/injection, schedule: Q04DX002 (ip), vehicle: saline
[5] = dose: 100.0 mg/kg/injection, schedule: Q01DX001 (ip), vehicle: saline with Tween-80
[6] = dose: 200.0 mg/kg/injection, schedule: Q01DX001 (ip), vehicle: saline with Tween-80
[7] = dose: 400.0 mg/kg/injection, schedule: Q01DX001 (ip), vehicle: saline with Tween-80
[8] = dose: 100.0 mg/kg/injection, schedule: Q01DX001 (ip), vehicle: saline
[9] = dose: 200.0 mg/kg/injection, schedule: Q01DX001 (ip), vehicle: saline
[10] = dose: 100.0 mg/kg/injection, schedule: Q04DX003 (ip), vehicle: saline with Tween-80
[11] = dose: 200.0 mg/kg/injection, schedule: Q04DX003 (ip), vehicle: saline with Tween-80
[12] = dose: 400.0 mg/kg/injection, schedule: Q04DX003 (ip), vehicle: saline with Tween-80
[13] = dose: 400.0 mg/kg/injection, schedule: Q01DX001 (ip), vehicle: saline
[14] = dose: 100.0 mg/kg/injection, schedule: Q01DX009 (ip), vehicle: Klucel (hydroxypropylcellulose) (HPC)
[15] = dose: 100.0 mg/kg/injection, schedule: Q04DX003 (ip), vehicle: Klucel (hydroxypropylcellulose) (HPC)
[16] = dose: 200.0 mg/kg/injection, schedule: Q01DX009 (ip), vehicle: Klucel (hydroxypropylcellulose) (HPC)
[17] = dose: 200.0 mg/kg/injection, schedule: Q04DX003 (ip), vehicle: Klucel (hydroxypropylcellulose) (HPC)
[18] = dose: 400.0 mg/kg/injection, schedule: Q01DX009 (ip), vehicle: Klucel (hydroxypropylcellulose) (HPC)
[19] = dose: 400.0 mg/kg/injection, schedule: Q04DX003 (ip), vehicle: Klucel (hydroxypropylcellulose) (HPC)
[20] = dose: 100.0 mg/kg/injection, schedule: Q04DX003 (ip), vehicle: saline
[21] = dose: 200.0 mg/kg/injection, schedule: Q04DX003 (ip), vehicle: saline
[22] = dose: 400.0 mg/kg/injection, schedule: Q04DX003 (ip), vehicle: saline
[23] = dose: 100.0 mg/kg/injection, schedule: Q01DX009 (ip), vehicle: saline with Tween-80
[24] = dose: 100.0 mg/kg/injection, schedule: Q04DX002 (ip), vehicle: saline with Tween-80
[25] = dose: 200.0 mg/kg/injection, schedule: Q01DX009 (ip), vehicle: saline with Tween-80
[26] = dose: 200.0 mg/kg/injection, schedule: Q04DX002 (ip), vehicle: saline with Tween-80
[27] = dose: 400.0 mg/kg/injection, schedule: Q01DX009 (ip), vehicle: saline with Tween-80
[28] = dose: 400.0 mg/kg/injection, schedule: Q04DX002 (ip), vehicle: saline with Tween-80

Measured: T/C

c1ccc(C[n+]2cccc3ccccc32)cc1
inactive: dose: 6.25 mg/kg/injection, schedule: Q01DX009 (ip), vehicle: saline 100 % of control | dose: 6.25 mg/kg/injection, schedule: Q04DX003 (ip), vehicle: saline 97 % of control | dose: 12.5 mg/kg/injection, schedule: Q01DX009 (ip), vehicle: saline 101 % of control | dose: 12.5 mg/kg/injection, schedule: Q04DX002 (ip), vehicle: saline 98 % of control | dose: 12.5 mg/kg/injection, schedule: Q04DX003 (ip), vehicle: saline 106 % of control | [1] 100 % of control | [2] 102 % of control | [3] 101 % of control | [4] 105 % of control

CC1CCC(C)OCO1 (stereo not drawn)
inactive: dose: 50.0 mg/kg/injection, schedule: Q01DX009 (ip), vehicle: acetone 97 % of control | dose: 100.0 mg/kg/injection, schedule: Q01DX009 (ip), vehicle: acetone 98 % of control | dose: 200.0 mg/kg/injection, schedule: Q01DX009 (ip), vehicle: acetone 88 % of control

COc1ccc(CCN(C)C2c3ccccc3C=Cc3ccccc32)cc1OC
inactive: [5] 103 % of control | [6] 107 % of control | [7] 98 % of control

Clc1ccc(SCN(CSc2ccc(Cl)cc2)Cc2ccccc2)cc1
inactive: [8] 91 % of control | [9] 90 % of control

COC1=C(OC)C(=O)c2ccccc2C1=O
inactive: dose: 12.5 mg/kg/injection, schedule: Q01DX009 (ip), vehicle: Klucel (hydroxypropylcellulose) (HPC) 95 % of control | dose: 25.0 mg/kg/injection, schedule: Q01DX009 (ip), vehicle: Klucel (hydroxypropylcellulose) (HPC) 92 % of control | dose: 50.0 mg/kg/injection, schedule: Q01DX009 (ip), vehicle: Klucel (hydroxypropylcellulose) (HPC) 98 % of control

Cc1ccc(C(=O)CCCCl)c(C)c1
inactive: [10] 99 % of control | [11] 94 % of control | [12] 96 % of control

O=[N+]([O-])c1ccc(N/N=C/c2ccc(/C=N/Nc3ccc([N+](=O)[O-])cc3)cc2)cc1
inactive: dose: 15.0 mg/kg/injection, schedule: Q01DX Z (ip), vehicle: carboxymethylcellulose (CMC) 116 % of control | dose: 30.0 mg/kg/injection, schedule: Q01DX Z (ip), vehicle: carboxymethylcellulose (CMC) 104 % of control | dose: 60.0 mg/kg/injection, schedule: Q01DX Z (ip), vehicle: carboxymethylcellulose (CMC) 98 % of control and 106 % of control | dose: 120.0 mg/kg/injection, schedule: Q01DX Z (ip), vehicle: carboxymethylcellulose (CMC) 96 % of control and 98 % of control | dose: 240.0 mg/kg/injection, schedule: Q01DX Z (ip), vehicle: carboxymethylcellulose (CMC) 98 % of control | dose: 240.0 mg/kg/injection, schedule: Q01DX Z (oral), vehicle: carboxymethylcellulose (CMC) 103 % of control | dose: 480.0 mg/kg/injection, schedule: Q01DX Z (ip), vehicle: carboxymethylcellulose (CMC) 95 % of control | dose: 480.0 mg/kg/injection, schedule: Q01DX Z (oral), vehicle: carboxymethylcellulose (CMC) 103 % of control | dose: 960.0 mg/kg/injection, schedule: Q01DX Z (oral), vehicle: carboxymethylcellulose (CMC) 103 % of control

COc1ccccc1C1CCCC1OS(C)(=O)=O (stereo not drawn)
inactive: dose: 75.0 mg/kg/injection, schedule: Q04DX003 (ip), vehicle: saline 103 % of control | [8] 98 % of control | dose: 150.0 mg/kg/injection, schedule: Q04DX003 (ip), vehicle: saline 100 % of control | [9] 107 % of control | dose: 300.0 mg/kg/injection, schedule: Q04DX003 (ip), vehicle: saline 108 % of control | [13] 96 % of control

COC(=O)CCSCCC(=O)OC
inactive: [14] 105 % of control | [15] 103 % of control | [16] 97 % of control | [17] 101 % of control | [18] 95 % of control | [19] 105 % of control

CC(C)OC(=O)C(C)OC(=O)C1CCCCC1 (stereo not drawn)
inactive: [8] 98 % of control | [9] 97 % of control | [13] 93 % of control

O=C(O)CC(Br)CBr (stereo not drawn)
inactive: [8] 94 % of control | [9] 103 % of control

CC(C#N)CC12CCCCC1CC/C(=C\c1ccccc1)C2 (stereo not drawn)
inactive: [15] 92 % of control | [17] 94 % of control | [19] 94 % of control

CCN(CCO)CC1C(c2ccccc2)C1c1ccccc1 (stereo not drawn)
inactive: dose: 12.5 mg/kg/injection, schedule: Q04DX002 (ip), vehicle: Klucel (hydroxypropylcellulose) (HPC) 93 % of control | dose: 25.0 mg/kg/injection, schedule: Q04DX002 (ip), vehicle: Klucel (hydroxypropylcellulose) (HPC) 90 % of control | dose: 50.0 mg/kg/injection, schedule: Q04DX002 (ip), vehicle: Klucel (hydroxypropylcellulose) (HPC) 90 % of control

CN1CCC(=O)N1
inactive: [8] 100 % of control | [9] 100 % of control | [13] 98 % of control

O=C(OCc1ccccc1)c1cc(OCc2ccccc2)ccc1OCc1ccccc1
inactive: [14] 89 % of control | [15] 93 % of control | [16] 101 % of control | [17] 95 % of control | [18] 107 % of control | [19] 98 % of control

CN(C)CCCc1c2ccccc2nc2ccc(Cl)cc12
inactive: dose: 12.0 mg/kg/injection, schedule: Q01DX009 (ip), vehicle: saline 98 % of control | [1] 101 % of control

CCOC(=O)C1c2cccc(O)c2C=CN1C(C)=O (stereo not drawn)
inactive: [20] 101 % of control | [21] 97 % of control | [22] 104 % of control

COc1cc(C(=O)N2CCCCCCC2)cc(OC)c1OC
inactive: [15] 98 % of control | [17] 102 % of control

COC(=O)C1CCC(NS(=O)(=O)c2ccc(C)cc2)CC1 (stereo not drawn)
inactive: dose: 100.0 mg/kg/injection, schedule: Q01DX001 (ip), vehicle: Klucel (hydroxypropylcellulose) (HPC) 98 % of control | dose: 200.0 mg/kg/injection, schedule: Q01DX001 (ip), vehicle: Klucel (hydroxypropylcellulose) (HPC) 98 % of control | dose: 400.0 mg/kg/injection, schedule: Q01DX001 (ip), vehicle: Klucel (hydroxypropylcellulose) (HPC) 101 % of control

CCOC(=O)c1ccc(NS(=O)(=O)c2c(C)cc(C)cc2C)cc1
inactive: [23] 104 % of control and 90 % of control | [24] 97 % of control and 103 % of control | [20] 95 % of control | [25] 95 % of control and 103 % of control | [26] 89 % of control and 91 % of control | [21] 96 % of control | [27] 95 % of control and 105 % of control | [28] 97 % of control and 87 % of control | [22] 91 % of control

Nc1ncnc(N)c1NC(=O)c1cccnc1
inactive: [20] 92 % of control | [21] 96 % of control | [22] 100 % of control

CC1(C)CCC(C)(C)c2cc(O)ccc21
inactive: [8] 94 % of control | [15] 92 % of control | [9] 96 % of control | [17] 92 % of control | [13] 89 % of control | [19] 87 % of control

C=C1C(=O)O[C@H]2C=C(C)[C@H]3[C@@H](OC(C)=O)C[C@@](C)(O)[C@@H]3C[C@H]12
inactive: dose: 50.0 mg/kg/injection, schedule: Q01DX Z (ip), vehicle: carboxymethylcellulose (CMC) 94 % of control

Cc1cccnc1N1CCNC1=O
inactive: [3] 92 % of control | dose: 50.0 mg/kg/injection, schedule: Q04DX003 (ip), vehicle: saline 103 % of control | [20] 96 % of control and 117 % of control

CCC(=O)C1CCCCN1 (stereo not drawn)
inactive: [2] 94 % of control | [4] 94 % of control

CC1(C)Oc2c(ccc(O)c2CN2CCCC2)C2=C1CCCC2
inactive: [8] 95 % of control | [9] 95 % of control | [13] 95 % of control

O=C(Nc1ccc(Cl)cc1[N+](=O)[O-])Nc1ccccc1C(F)(F)F
inactive: [5] 93 % of control | [23] 94 % of control and 90 % of control | [24] 95 % of control and 96 % of control | [10] 97 % of control | [6] 90 % of control | [25] 100 % of control and 92 % of control | [26] 93 % of control and 98 % of control | [11] 88 % of control | [7] 101 % of control | [27] 94 % of control and 87 % of control | [28] 91 % of control | [12] 88 % of control

— PubChem BioAssay AID248 (DTP/NCI, 2004)
